Reference: article PMC7529893, “Structural basis for substrate recognition and chemical inhibition of oncogenic MAGE ubiquitin ligases” (Nature Communications, 2020)

Molecular target: T1, MAGE-A11:PCF11 interaction (GST-MAGE-A11 and FAM-PCF11_4) (Homo sapiens, UniProt P43364)
T1 construct: GST-MAGE-A11 MHD (human MAGE-A11 MHD amino acid 218-429); made in house; host or cells: E. coli BL21(DE3)
T1 sequence (P43364 218-429): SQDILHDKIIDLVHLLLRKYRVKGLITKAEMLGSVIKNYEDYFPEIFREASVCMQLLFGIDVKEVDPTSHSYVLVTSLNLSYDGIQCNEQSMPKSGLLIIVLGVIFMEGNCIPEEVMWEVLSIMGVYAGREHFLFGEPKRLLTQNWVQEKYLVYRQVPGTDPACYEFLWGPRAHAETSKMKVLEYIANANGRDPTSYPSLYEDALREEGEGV
Test: TR-FRET primary / single point screen at 15 µM
Type: binding
Method: The TR-FRET assay buffer with a formula of 50 mM Tris pH 7.5, 20 mM MgCl2, 0.1 mg/ml BSA and 1 mM DTT was freshly prepared before each experiment. All TR-FRET assays were performed in black 384-well plates with 20 µl/well assay volume in the TR-FRET assay buffer at room temperature (~25 °C). All peptides or compounds were solubilized in DMSO. To test the competitive activity of peptides or compounds against the interaction between GST-MAGE-A11 MHD and FAM-PCF11_4 peptide, 10 µl/well peptide or compound at specified concentration was dispensed into a black 384-well low volume plate, followed by 5 µl/well FAM-PCF11_4 (800 nM), 5 µl/well Tb-anti-GST (20 nM), and GST-MAGE-A11 MHD (20 nM). The assay components in each well was then mixed by shaking the plate on an IKA MTS 2/4 digital microtiter plate shaker (IKA Works; Wilmington, NC, USA) for 1 min. The plate was further centrifuged in an Eppendorf 5810 centrifuge with an A-4-62 swing-bucket rotor (Eppendorf AG, Hamburg, Germany) at 201 g for 30 s. The plate was then incubated for 90 min with a lid to avoid light exposure to the assay components. After incubation, the fluorescent emission signals at 520 nm and 490 nm channels of individual wells were measured with a PHERAstar FS plate reader (BMG Labtech; Durham, NC, USA) by using a 340 nm excitation filter, 100 µs delay time, and 200 µs integration time. The TR-FRET fluorescence emission ratio (TR-FRET signal) for each well was presented as 10,000 × 520 nm/490 nm, which was used directly for curve fitting, or further converted to %Inhibition based on the respective positive and negative controls. The graphic software GraphPad Prism 4.81 (GraphPad Software; La Jolla, CA, USA) was used to generate curves and derive IC50 values of tested peptides or compounds, if applicable. TR-FRET screen for identifying MAGE-A11 small molecule inhibitors was performed as follows. The primary one-concentration screening and subsequent 10 or 20-concentration dose-response tests were accomplished with an automated High Throughput Screening system (HighRes Biosolutions, Beverly, MA)[30]. In the primary screening, 15 µl/well FAM-PCF11_4 (267 nM) was first dispensed with a Multidrop Combi Reagent Dispenser (Thermo Fisher Scientific, Waltham, MA) to black 384-well low-volume assay plates. The plates were spun down with a Velocity11 VSpin microplate centrifuge (Agilent Technologies, Santa Clara, CA). In total, 30 nl/well of 10 mM compound/DMSO solutions, or DMSO alone, were transferred from compound plates (the St. Jude FDA drug and bioactive library, Drug-like library and Lead-like library) or a control plate to the assay plates with a Pin Tool (V&P Scientific, San Diego, CA). The compounds were arrayed in columns 3–12 and columns 15–24 of compound plates. The controls were arrayed in columns 1, 2, 13, and 14 of a compound plate. In all, 5 µl/well Tb-anti-GST (20 nM) and GST-MAGE-A11 (20 nM) or 5 µl/well Tb-anti-GST (20 nM) alone was then dispensed to selected wells with a Multidrop Combi Reagent Dispenser. The final assay volume was 20 µl/well. […] The final tested compound concentration was 15 µM. The final FAM-PCF11_4 concentration was 200 nM and the final Tb-anti-GST concentration was 5 nM. The final GST-MAGE-A11 concentration was 5 nM except for those selected positive control wells in which GST-MAGE-A11 was not presented. The plates were then shaken with a big bear shaker (Big Bear Automation, Santa Clara, California) and spun down with the Velocity11 VSpin microplate centrifuge for 20 s. The plates were then incubated at room temperature in a Liconic incubator (Liconic US, Woburn, MA) for 90 min. The TR-FRET signals for individual wells were measured with a PHERAstar FS plate reader. The %Inhibition of each tested inhibitor was calculated by using Eq. 1. Those inhibitors with %Inhibition >30% in the primary screening were selected for further dose-response test, along with additional newly synthesized compounds. […]

[1] = single point TR-FRET screening of quinoline compounds against MAGE-A11:PCF11, 15 µM
[2] = single point TR-FRET screening of 797 quinoline compounds against MAGE-A11:PCF11

Row | percent inhibition (TR-FRET) [1] | percent inhibition (TR-FRET) [2] | Structure (SMILES)
1 | 5.6 |  | Clc1ccc2c(NCCCN(Cc3ccccc3)Cc3cc4ccccc4o3)ccnc2c1 [SJ000520461]
2 |  | -2.261 | CCc1ccc2ncc(C(=O)c3ccccc3)c(N3CCN(CC)CC3)c2c1 [SJ000247281]
3 | -9.243 |  | CCCN(CCCNc1ccnc2cc(C(F)(F)F)ccc12)Cc1cc(Br)cs1 [SJ000520478]
4 |  | 8.5376 | CCOC(=O)c1cnc2c(C)c(C)ccc2c1NCCN(C)C [SJ000134078]
5 | 20.1719 |  | CCCN(CCCNc1ccnc2cc(C(F)(F)F)ccc12)Cc1cccc(C)c1 [SJ000523076]
6 |  | -118.554 | CCCN(CCCNc1c2ccc(Cl)cc2nc2ccc(OC)cc12)Cc1ccccc1F [SJ000520944]
7 | 32.3998 |  | Clc1cccc(Cl)c1Cc1ccc2c(NCCCNCc3ccco3)ccnc2c1 [SJ000311314]
8 |  | 3.973 | Clc1ccc2c(NC3CCN(CC4CC4)CC3)ccnc2c1 [SJ000357481]
9 | 13.6386 |  | CCCN(CCCNc1ccnc2cc(Cl)ccc12)Cc1c(C)n(C)n(-c2ccccc2)c1=O [SJ000522755]
10 | 27.4987 |  | Clc1ccc2c(NCCCN(Cc3ccccc3)Cc3ccc(Br)s3)ccnc2c1 [SJ000357461]
11 | -11.15 |  | Clc1ccc2c(NCCCNCc3ccoc3)ccnc2c1 [SJ000520913]
12 |  | 6.8942 | CCc1nc2ccccc2c(NC(=O)CN2CCN(c3ccccc3)CC2)c1C [SJ000111681]
13 |  | -286.942 | CCCCN(CCC)CCCNc1c2ccc(Cl)cc2nc2ccc(OC)cc12 [SJ000522971]
14 | -74.0063 |  | CCCN(CCCNc1c2ccc(Cl)cc2nc2ccc(OC)cc12)Cc1ccc(-c2ccccc2)cc1 [SJ000522740]
15 | 24.3255 |  | CCC(CC)CNCCCNc1ccnc2cc(C(F)(F)F)ccc12 [SJ000361111]
16 |  | 14.8973 | Clc1ccc2c(NCCCCN(Cc3ccccc3)Cc3ccoc3)ccnc2c1 [SJ000312685]
17 |  | -166.235 | CCCN(CCCNc1c2ccc(Cl)cc2nc2ccc(OC)cc12)Cc1c[nH]c2ccccc12 [SJ000522978]
18 | 14.4758 |  | CCCN(CCCNc1c2ccc(Cl)cc2nc2ccc(OC)cc12)Cc1cccc(OC(F)(F)F)c1 [SJ000522967]
19 | 11.7837 |  | COc1ccc(CN(CCCNc2ccnc3cc(Cl)ccc23)Cc2ccccc2)cc1 [SJ000522720]
20 | -68.773 |  | CCCN(CCCNc1c2ccc(Cl)cc2nc2ccc(OC)cc12)Cc1nc2ccccc2s1 [SJ000522969]
21 | -81.4922 |  | COc1ccc2nc3cc(Cl)ccc3c(NCCCNCc3c(Cl)ccc(Cl)c3Cl)c2c1 [SJ000522960]
22 |  | 4.988 | CN(C)c1cc(NC(=O)CN2CCOCC2)c2ccccc2n1 [SJ000111677]
23 |  | -119.324 | CCCN(CCCNc1c2ccc(Cl)cc2nc2ccc(OC)cc12)Cc1cc(C)ccc1C [SJ000520960]
24 | 4.102 |  | CCOC(=O)c1cnc2c(Cl)cccc2c1NCCCN1CCOCC1 [SJ000279431]
25 |  | 33.9765 | Clc1ccc2c(NCCCCN(Cc3ccccc3)Cc3csc4ccccc34)ccnc2c1 [SJ000520446]
26 | 27.4287 |  | Fc1ccc(-c2ccc3c(NCCCNCc4ccco4)ccnc3c2)cc1 [SJ000311238]

Row | percent inhibition (TR-FRET) [1] | percent inhibition (TR-FRET) [2] | Structure (SMILES)
27 | -7.0891 |  | COc1ccc2nc3cc(Cl)ccc3c(NCCCNCc3cccc(C)c3)c2c1 [SJ000522956]
28 | 14.9289 |  | CCOC(=O)c1cnc2c(C)cc(C)cc2c1NCCCN(C)C [SJ000037397]
29 |  | 23.7178 | COc1ccc(CN2CCC(Nc3ccnc4cc(Cl)ccc34)CC2)cc1 [SJ000523090]
30 | 23.7127 |  | CCCN(CCCNc1ccnc2cc(C(F)(F)F)ccc12)Cc1ccc(N(C)C)cc1 [SJ000523077]
31 | 9.295 |  | CCCN(CCCNc1ccnc2cc(Cl)ccc12)Cc1ccncc1 [SJ000357449]
32 | 19.1371 |  | CCCN(CCCNc1ccnc2cc(Cl)ccc12)Cc1ccc(OC)cc1 [SJ000522756]
33 | -46.315 |  | CCCN(CCCNc1c2ccc(Cl)cc2nc2ccc(OC)cc12)Cc1c(C)cc(C)cc1C [SJ000520934]
34 |  | 28.7514 | Fc1cccc(C(F)(F)F)c1CN(CCCCNc1ccnc2cc(Cl)ccc12)Cc1ccccc1 [SJ000520465]
35 |  | -264.817 | CCCN(CCCNc1c2ccc(Cl)cc2nc2ccc(OC)cc12)CC(C)CC (centres unmarked) [SJ000520959]
36 |  | 6.634 | COc1ccc(O)c(CN(CCCCNc2ccnc3cc(Cl)ccc23)Cc2ccccc2)c1 [SJ000312696]
37 | 18.0772 |  | Fc1ccc(CN(CCCNc2ccnc3cc(Cl)ccc23)Cc2ccccc2)cc1 [SJ000522721]
38 |  | -18.955 | CCOc1ccc2ncc(C(=O)c3ccc(OC)cc3)c(N3CCN(C)CC3)c2c1 [SJ000247277]
39 |  | 14.5458 | COc1ccc(F)c(CN(CCCCNc2ccnc3cc(Cl)ccc23)Cc2ccccc2)c1 [SJ000520441]
40 |  | 25.4682 | CC(C)CN(CCCCNc1ccnc2cc(Cl)ccc12)Cc1ccccc1 [SJ000357470]
41 |  | -6.249 | CCc1ccc2ncc(S(=O)(=O)c3ccccc3)c(N3CCN(C)CC3)c2c1 [SJ000083946]
42 | 29.228 |  | CCCN(CCCNc1ccnc2cc(C(F)(F)F)ccc12)Cc1c(F)cccc1OC [SJ000361262]
43 | 16.2262 |  | CCCN(CCCNc1ccnc2cc(Cl)ccc12)Cc1ccc(-c2cccc(Cl)c2)o1 [SJ000523045]
44 |  | 23.4378 | Cc1ccsc1CN(CCCCNc1ccnc2cc(Cl)ccc12)Cc1ccccc1 [SJ000361191]
45 |  | 4.674 | COc1cc2ncc(S(=O)(=O)c3ccc(Cl)cc3)c(N3CCN(C)CC3)c2cc1OC [SJ000083953]
46 | 28.1386 |  | Clc1ccc2c(NCCCN(Cc3ccccc3)Cc3csc4ccccc34)ccnc2c1 [SJ000520454]
47 |  | 11.7451 | COc1ccc(CN2CCC(Nc3ccnc4cc(Cl)ccc34)CC2)cc1OC [SJ000523103]
48 |  | -117.531 | CCCN(CCCNc1c2ccc(Cl)cc2nc2ccc(OC)cc12)Cc1nccs1 [SJ000522988]
49 |  | -514.546 | COc1ccc2nc3cc(Cl)ccc3c(NCCCNCCC(C)SC)c2c1 (centres unmarked) [SJ000361098]
50 |  | -9.084 | CCOc1ccc2ncc(C(=O)c3ccc(OC)cc3)c(N3CCN(CC)CC3)c2c1 [SJ000247243]
51 | -10.5199 |  | CCOC(=O)c1cnc2c(C)cc(Cl)cc2c1NCCCN1CCOCC1 [SJ000174094]
52 | 4.988 |  | Clc1ccc2c(NCCCNCc3nccs3)ccnc2c1 [SJ000521023]

Row | Structure (SMILES) | percent inhibition (TR-FRET) [1] | percent inhibition (TR-FRET) [2]
53 | CCCCCCNCCCNc1ccnc2cc(C(F)(F)F)ccc12 [SJ000361124] | 31.6112 | 
